Values joined by “and” are separate entries in the source; they are usually repeats but may differ in a detail not shown here. Identical values can stand only once. Toxic doses and inconclusive results are not listed. Rule for the calls: active = survival T/C of 150% or more; inactive = T/C below 125% in these data.
System: BDF1 mice, P388 leukemia ip, median survival T/C
Assay: NCI In Vivo Anticancer Drug Screen. Data for tumor model P388 Leukemia (intraperitoneal) in B6D2F1 (BDF1) mice
Details: endpoint: median survival time, higher = longer survival
Summary of the method: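 Read-out is survival of treated animals expressed relative to the vehicle group, as a T/C ratio.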

Measured: T/C

Cc1c(N)nc([C@H](CC(N)=O)NC[C@H](N)C(N)=O)nc1C(=O)N[C@H](C(=O)N[C@H](C)[C@@H](O)[C@H](C)C(=O)N[C@H](C(=O)NCCc1nc(-c2nc(C(=O)NCCC[S+](C)C)cs2)cs1)[C@@H](C)O)C(OC1OC(CO)C(O)C(O)C1OC1OC(CO)C(O)C(OC(N)=O)C1O)c1cnc[nH]1 (stereo partly drawn)
inactive: dose: 0.12 mg/kg/injection, schedule: Q03HX040 (ip), vehicle: saline 101 % of control | dose: 0.5 mg/kg/injection, schedule: Q03HX040 (ip), vehicle: saline 93 % of control | dose: 1.0 mg/kg/injection, schedule: Q01DX005 (ip), vehicle: water 105 % of control | dose: 1.0 mg/kg/injection, schedule: Q01DX009 (ip), vehicle: water 109 % of control | dose: 2.0 mg/kg/injection, schedule: Q01DX009 (ip), vehicle: saline 112 % of control and 115 % of control | dose: 2.0 mg/kg/injection, schedule: Q01DX009 (ip), vehicle: water 109 % of control | dose: 2.0 mg/kg/injection, schedule: Q03HX008 (ip), vehicle: saline 113 % of control | dose: 2.0 mg/kg/injection, schedule: Q03HX016 (ip), vehicle: saline 109 % of control | dose: 2.88 mg/kg/injection, schedule: Q01DX009 (ip), vehicle: saline 103 % of control | dose: 4.0 mg/kg/injection, schedule: Q01DX005 (ip), vehicle: water 107 % of control | dose: 4.0 mg/kg/injection, schedule: Q01DX009 (ip), vehicle: saline 109 % of control and 110 % of control | dose: 4.0 mg/kg/injection, schedule: Q01DX009 (ip), vehicle: water 98 % of control | dose: 4.0 mg/kg/injection, schedule: Q03HX008 (ip), vehicle: saline 109 % of control and 118 % of control | dose: 4.0 mg/kg/injection, schedule: Q03HX024 (ip), vehicle: saline 118 % of control | dose: 4.0 mg/kg/injection, schedule: Q04DX003 (ip), vehicle: other 124 % of control | dose: 4.8 mg/kg/injection, schedule: Q01DX009 (ip), vehicle: saline 115 % of control | dose: 8.0 mg/kg/injection, schedule: Q01DX005 (ip), vehicle: water 107 % of control | dose: 8.0 mg/kg/injection, schedule: Q01DX009 (ip), vehicle: water 100 % of control | dose: 8.0 mg/kg/injection, schedule: Q03HX008 (ip), vehicle: saline 118 % of control | dose: 8.0 mg/kg/injection, schedule: Q03HX016 (ip), vehicle: saline 122 % of control | dose: 8.0 mg/kg/injection, schedule: Q03HX024 (ip), vehicle: saline 104 % of control and 109 % of control | dose: 8.0 mg/kg/injection, schedule: Q04DX003 (ip), vehicle: other 108 % of control | dose: 10.8 mg/kg/injection, schedule: Q01DX009 (ip), vehicle: saline 110 % of control | dose: 12.0 mg/kg/injection, schedule: Q01DX009 (ip), vehicle: saline 117 % of control | dose: 13.0 mg/kg/injection, schedule: Q01DX001 (ip), vehicle: saline 113 % of control | dose: 13.33 mg/kg/injection, schedule: Q01DX009 (ip), vehicle: saline 119 % of control | dose: 13.33 mg/kg/injection, schedule: Q04DX003 (ip), vehicle: saline 100 % of control | dose: 16.0 mg/kg/injection, schedule: Q01DX001 (ip), vehicle: saline 118 % of control and 122 % of control | dose: 16.0 mg/kg/injection, schedule: Q01DX005 (ip), vehicle: water 109 % of control | dose: 16.0 mg/kg/injection, schedule: Q01DX009 (ip), vehicle: water 86 % of control | dose: 16.0 mg/kg/injection, schedule: Q03HX008 (ip), vehicle: saline 90 % of control and 122 % of control | dose: 16.0 mg/kg/injection, schedule: Q03HX016 (ip), vehicle: saline 104 % of control | dose: 18.0 mg/kg/injection, schedule: Q01DX009 (ip), vehicle: saline 95 % of control and 98 % of control | dose: 20.0 mg/kg/injection, schedule: Q01DX001 (ip), vehicle: saline 113 % of control | dose: 22.22 mg/kg/injection, schedule: Q04DX003 (ip), vehicle: saline 106 % of control | dose: 30.0 mg/kg/injection, schedule: Q01DX001 (ip), vehicle: saline 109 % of control | dose: 30.0 mg/kg/injection, schedule: Q01DX009 (ip), vehicle: saline 86 % of control | dose: 32.0 mg/kg/injection, schedule: Q01DX001 (ip), vehicle: saline 122 % of control | dose: 32.0 mg/kg/injection, schedule: Q04DX003 (ip), vehicle: other 101 % of control | dose: 32.0 mg/kg/injection, schedule: Q04DX003 (ip), vehicle: saline 100 % of control | dose: 32.0 mg/kg/injection, schedule: Q08DX002 (ip), vehicle: saline 109 % of control | dose: 37.0 mg/kg/injection, schedule: Q04DX003 (ip), vehicle: saline 110 % of control | dose: 44.0 mg/kg/injection, schedule: Q01DX001 (ip), vehicle: saline 113 % of control and 118 % of control | dose: 61.7 mg/kg/injection, schedule: Q04DX003 (ip), vehicle: saline 105 % of control | dose: 64.0 mg/kg/injection, schedule: Q01DX001 (ip), vehicle: saline 104 % of control and 118 % of control | dose: 64.0 mg/kg/injection, schedule: Q01DX009 (ip), vehicle: saline 95 % of control | dose: 64.0 mg/kg/injection, schedule: Q04DX003 (ip), vehicle: saline 109 % of control | dose: 64.0 mg/kg/injection, schedule: Q08DX002 (ip), vehicle: saline 122 % of control | dose: 67.0 mg/kg/injection, schedule: Q01DX001 (ip), vehicle: saline 113 % of control | dose: 100.0 mg/kg/injection, schedule: Q01DX001 (ip), vehicle: saline 108 % of control | dose: 128.0 mg/kg/injection, schedule: Q01DX001 (ip), vehicle: saline 118 % of control | dose: 128.0 mg/kg/injection, schedule: Q04DX003 (ip), vehicle: saline 100 % of control | dose: 128.0 mg/kg/injection, schedule: Q08DX002 (ip), vehicle: saline 104 % of control and 118 % of control
